In US4207419A, “Prostaglandin derivatives” (American Home Products Corporation, priority 1977, dated 1980):

Assays:
[1] = Hypotensive effects in the anesthetized dog by the intravenous route; format: in vivo; conditions: average of two animals
Experimental: In the use of the compounds of the invention to produce hypotensive effects in warm-blooded animals, administration by the injectable route is preferred, preferably the intravenous route.
Thus in the anesthetized dog by the intravenous route the dose to produce hypotension is from about 1 μg/kg. to about 200 μg/kg. and preferably from about 10 μg/kg. to about 100 μg/kg. Using this procedure the following results were obtained:
*Average of two animals.

[2] = test system: bronchoconstricting effects of a standard dose of acetylcholine; experiment: Bronchodilation upon aerosol inhalation, method of Rosenthale et al.; format: in vivo; conditions: guinea pig, i.v. acetylcholine producing ca. 30% bronchoconstriction
Source text: In using the compounds of the invention to produce bronchodilating effects in warm-blooded animals, they may be administered in a variety of dosage forms: oral, injectable, and aerosol inhalation. Aerosol inhalation is a preferred method because of its rapid onset of action, great potency, and specificity of action. The particular dosage to obtain the bronchodilating effect will vary with the particular compound employed, the particular animal involved, and the degree of bronchodilation desired. In the guinea pig, by aerosol inhalation, the dose to produce bronchodilation is from about 0.15 micrograms to about 25 micrograms, and preferably from about 0.15 to about 15 micrograms. The bronchodilation produced upon aerosol inhalation can be observed by the method of Rosenthale et al., J. Pharmacol. Exp. Ther., 178, 541 (1971). Using this procedure the following results were obtained:
*The dose (i.v. of acetylcholine which produces a ca. 30%

Structure (SMILES) | Δ B.P. ([1]; dose 10 μg/kg.) [mm. Hg.] | Δ B.P. ([1]; dose 100 μg/kg.) [mm. Hg.] | Percent Inhibition of the bronchoconstricting effects of a standard dose of acetylcholine ([2]; dose 0.15 μg) [%] | Percent Inhibition of the bronchoconstricting effects of a standard dose of acetylcholine ([2]; dose 1.50 μg) [%] | Percent Inhibition of the bronchoconstricting effects of a standard dose of acetylcholine ([2]; dose 15 μg) [%]
CC(C)(c1ccccc1)[C@H](O)CC[C@H]1CCC(=O)[C@@H]1CCCCCCC(=O)O (relative stereo) [dl-2β-[(3R)-3-Hydroxy-4,4-Dimethyl-4-Phenyl-1-Butyl]-5-Oxo-1α-Cyclopentane Heptanoic Acid] | -14 | -26 | – | – | –
CC(C)(Cc1ccccc1)[C@H](O)/C=C/[C@H]1CCC(=O)[C@@H]1CCCCCCC(=O)O (relative stereo) [dl-2β-[(3R)-3-Hydroxy-4,4-Dimethyl-5-Phenyl-trans-1-Pentenyl]-5-Oxo-Cyclopentane Heptanoic Acid] | – | – | 46 | 66 | 60
CC(C)(c1ccccc1)[C@H](O)/C=C/[C@H]1CCC(=O)[C@@H]1C/C=C\CCCC(=O)O (relative stereo) [dl-7-{2β-[(3R)-3-Hydroxy-4,4-Dimethyl-4-Phenyl-trans-1-Butenyl]-5-Oxo-1α-Cyclopentyl}-cis-5-Heptenoic Acid] | -30 | – | – | – | –
